Experimental data as given in PMC10112521, “High-throughput AR dimerization assay identifies androgen disrupting chemicals and metabolites” (Frontiers in Toxicology, 2023).
Where “and” joins values, the source holds several entries; their conditions need not be identical. Equal entries are not always repeated. Where two headings read alike, the source gives them in different places.

Assays:
human AR [1] = target: T1, human AR (Homo sapiens, UniProt P10275); assay: AR2 assay, agonist mode: ligand-dependent AR homodimerization (NanoBiT luciferase complementation) in stable HepG2-AR2 cells; type: cell-based; design: Emax: dose or concentration left out as unconfirmed;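 as to hill tp: Log2 fold change of luminescence over DMSO vehicle wells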;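 as to max med: Log2 fold change of luminescence over DMSO vehicle wells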
T1 sequence (P10275 1-920) 1: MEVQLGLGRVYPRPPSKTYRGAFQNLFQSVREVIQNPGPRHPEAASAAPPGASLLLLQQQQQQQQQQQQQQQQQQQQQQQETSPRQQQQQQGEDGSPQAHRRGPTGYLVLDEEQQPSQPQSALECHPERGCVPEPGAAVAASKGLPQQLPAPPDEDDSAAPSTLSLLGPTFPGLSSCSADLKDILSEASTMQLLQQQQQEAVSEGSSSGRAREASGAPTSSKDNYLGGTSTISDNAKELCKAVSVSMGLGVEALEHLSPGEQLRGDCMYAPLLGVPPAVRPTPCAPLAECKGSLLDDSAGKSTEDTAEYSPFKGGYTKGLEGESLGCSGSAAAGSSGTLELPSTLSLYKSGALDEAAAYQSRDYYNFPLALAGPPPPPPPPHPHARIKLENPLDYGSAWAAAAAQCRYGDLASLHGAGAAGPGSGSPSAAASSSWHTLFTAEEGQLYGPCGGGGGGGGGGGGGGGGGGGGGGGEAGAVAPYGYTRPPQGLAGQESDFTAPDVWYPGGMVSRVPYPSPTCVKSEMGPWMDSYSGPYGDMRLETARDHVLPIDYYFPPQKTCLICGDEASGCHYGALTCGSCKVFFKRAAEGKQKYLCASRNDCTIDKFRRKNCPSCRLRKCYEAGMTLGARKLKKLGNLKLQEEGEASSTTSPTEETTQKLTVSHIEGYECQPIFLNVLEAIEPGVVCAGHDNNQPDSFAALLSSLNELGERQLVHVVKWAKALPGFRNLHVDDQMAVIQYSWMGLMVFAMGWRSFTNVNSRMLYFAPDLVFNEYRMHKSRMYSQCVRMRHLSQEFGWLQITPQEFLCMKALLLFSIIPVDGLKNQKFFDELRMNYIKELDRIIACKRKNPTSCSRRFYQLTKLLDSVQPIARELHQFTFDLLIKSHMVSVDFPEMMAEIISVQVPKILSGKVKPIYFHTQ
T1 sequence (P10275 1-920) 2: T1 sequence (P10275 1-920) 1

human AR [2] = target: T1, human AR; assay: AR2 assay, antagonist mode: disruption of R1881 (10 nM)-induced AR homodimerization in HepG2-AR2 cells; type: cell-based
[3] = system: full-length human AR and the receptor interacting domain (RID) of SRC1; design: method as in U.S. EPA, 2002b; settings: cited from earlier work
[4] = system: human AR (LBD and AF2 domains) and the RID of human SRC2; design: method as in U.S. EPA, 2002b; settings: activity call, agonist mode, 2 h; invitroDBv3.4 ref U.S. EPA, 2002b; cited from earlier work
[5] = system: human AR (LBD and AF2 domains) and the RID of human SRC2; design: method as in U.S. EPA, 2002b; settings: cited from earlier work
AR = system: AR; design: method as in Kleinstreuer et al., 2017; settings: 2017, cited from earlier work; for Agonist reference: AR agonist reference class ref Kleinstreuer et al.; for Antagonist reference: AR antagonist reference class ref Kleinstreuer et al.
human AR [6] = target: T1, human AR; assay: cell-based; design: species or system AR2 cells (HepG2-AR2); NanoLuc complementation AR homodimerization, antagonist mode, loss of agonist-induced luminescence, AC50 by Hill fit; settings: hill_ga, antagonist mode, 10 nM agonist stimulus, 18 h, no CYP expressed
AR2 cells (HepG2-AR2) [7] = assay: Alamar Blue (resazurin) post hoc cell viability / cytotoxicity assay in AR2 cells; settings: spid Viability, sheet antagonist_fits; for hill_tp (Hill model top): 0 where win_model is Constant
Method: (§1) For antagonist mode and cytotoxicity data, well-level normalized response (resp) was calculated as: resp=100 * RLU−bval/pval−bval where pval is the median RLU value of the MEC positive control wells (minimum four wells).

AR2 cells (HepG2-AR2) [8] = system: AR2 cells (HepG2-AR2)
Method: as §1

human AR [9] = target: T1, human AR; assay: cell-based; design: species or system AR2 cells (HepG2-AR2); NanoLuc complementation AR homodimerization, agonist mode, luminescence gain, AC50 by Hill fit; settings: hill_ga
human AR [10] = target: T1, human AR; assay: AR2 assay, antagonist mode, retrofitted with human CYP metabolism by mRNA transfection (biogroups no RNA, Bgal, ten CYPs)
human AR [11] = target: T1, human AR
human AR [12] = target: T1, human AR; assay: cell-based
[13] = sheet agonist_fits, Hill model top (efficacy), 0 given where win_model is Constant
[14] = sheet agonist_fits, maximum median response
[15] = sheet agonist_fits, winning concentration-response model (Constant, Hill, Gain-Loss)
[16] = spid AR_antagonist, sheet antagonist_fits
[17] = spid AR_antagonist, sheet antagonist_fits, 0 where win_model is Constant

CC1(C)[C@H](C(=O)O[C@H](C#N)c2cccc(Oc3ccccc3)c2)[C@@H]1C=C(Br)Br [Deltamethrin]
AR2 agonist (human AR [1]; activity call, agonist mode, 18 h): 0 | hill_tp (human AR [1]; [13]): 0 | max_med (human AR [1]; [14]): 0.0322 | win_model (human AR [1]; [15]): Constant | AR2 antagonist (human AR [2]; activity call, antagonist mode, 18 h): 0 | max_med (maximum median response) (human AR [2]; [16]): 65.39 | win_model (winning concentration-response model) (human AR [2]; [16]): Hill | hill_gw (Hill model slope) (human AR [2]; [17]): 2.614 | hill_tp (Hill model top) (human AR [2]; [17]): 65.8008 | OT 8 hr ([3]; activity call, 8 h, single protocol detects agonists and antagonists, invitroDBv3.4 ref U.S. EPA, 2002b): 0 | OT 16 hr ([3]; activity call, 16 h, single protocol detects agonists and antagonists, invitroDBv3.4 ref U.S. EPA, 2002b): 0 | UPitt agonist [4]: 0 | UPitt antagonist ([5]; activity call, antagonist mode, 2 h, invitroDBv3.4 ref U.S. EPA, 2002b): 0 | Agonist reference (AR): Inactive | Antagonist reference (AR): Inactive | Agonist reference (AR; Supplementary Table S1): Inactive | Antagonist reference (AR; Supplementary Table S1): Inactive | AC50 (human AR [6]; spid=Bgal): 12300 nM | AC50 (human AR [6]; spid=No_RNA): 12800 nM | max_med (maximum median response) (AR2 cells (HepG2-AR2) [7]): 34.81 | hill_tp (Hill model top) (AR2 cells (HepG2-AR2) [7]): 34.1073

C[C@]12CC[C@H]3C(=CCc4cc(O)ccc43)[C@@H]1CCC2=O [Equilin]
hill_gw (human AR [1]; sheet agonist_fits, Hill model gain slope (Hill coefficient), 0 given where win_model is Constant): 1.401 | hill_tp (human AR [1]; [13]): 3.175 | max_med (human AR [1]; [14]): 3.181 | win_model (human AR [1]; [15]): Hill | hill_tp (Hill model top) (human AR [2]): 92.4898 | max_med (maximum median response) (human AR [2]): 92.3262 | win_model (winning concentration-response model) (human AR [2]; [16]): Hill | hill_gw (Hill model slope) (human AR [2]; [17]): 1.131 | hill_tp (Hill model top) (AR2 cells (HepG2-AR2) [8]): 7.023 | max_med (maximum median response) (AR2 cells (HepG2-AR2) [8]; spid Viability, sheet antagonist_fits): 12.8285 | AC50 (human AR [6]; spid=Bgal): 487 nM | AC50 (human AR [6]; spid=No_RNA): 861 nM | AC50 (human AR [9]; spid=Bgal, agonist mode, 18 h, no CYP expressed): 2140 nM | AC50 (human AR [9]; spid=No_RNA, agonist mode, 18 h, no CYP expressed): 2290 nM | effect of CYP metabolism on AR antagonist activity (human AR [10]; CYP2C19 biogroup): reduced the potency

C[C@]1(O)CC[C@H]2[C@@H]3CCC4=CC(=O)CCC4=C3C=C[C@@]21C [R1881, (17b)-17-hydroxy-17-methyl-estra-4,9,11-trien-3-one]
hill_gw (human AR [1]): 1.162 | hill_tp (human AR [1]): 6.231 | max_med (human AR [1]): 6.236 | win_model (human AR [1]): Hill | Emax (human AR [1]; read-out: maximal response): > 95% | effect of CYP metabolism on the AR2 assay controls (human AR [11]): unimpacted by CYP metabolism

CCC(=O)O[C@H]1CC[C@H]2[C@@H]3CCC4=CC(=O)CC[C@]4(C)[C@H]3CC[C@]12C [Testosterone propionate]
AR2 agonist (human AR [1]): 1 | hill_gw (human AR [1]): 0.9765 | hill_tp (human AR [1]): 2.087 | max_med (human AR [1]): 2.0998 | win_model (human AR [1]): Gain-Loss | AR2 antagonist (human AR [2]): 1 | hill_gw (Hill model slope) (human AR [2]): 1.115 | hill_tp (Hill model top) (human AR [2]): 100.853 | max_med (maximum median response) (human AR [2]): 102.627 | win_model (winning concentration-response model) (human AR [2]): Hill | OT 8 hr [3]: 1 | OT 16 hr [3]: 1 | UPitt agonist [4]: 0 | UPitt antagonist [5]: 0 | Agonist reference (AR): Strong | Antagonist reference (AR): Inactive | Agonist reference (AR; Supplementary Table S1): Strong | AC50 (human AR [12]): 169 nM and 529 nM and 333 nM and 440 nM and 380 nM | AC50 (human AR [9]): 234 nM | max_med (maximum median response) (AR2 cells (HepG2-AR2) [7]): 32.5936 | hill_tp (Hill model top) (AR2 cells (HepG2-AR2) [7]): 43.3025 | change of AC50 value (human AR [10]; median across all biogroups versus CYP2C8, CYP2C9, CYP2C19, CYP3A4): more than 2 fold
